The test system of data set [1] is SK-MEL-28. As to the kind of experiment: Antiproliferative activity against human SK-MEL-28 cells assessed as inhibition of cell proliferation incubated for 48 hrs by MTT assay. The data set is classed as functional, cell-based. The settings on record: SK-MEL-28, 48 h. A general note: Tetrazolium assays rely on reduction of a dye to a coloured formazan, in cell work by metabolically active cells.

Data set [2] relates to M14. Put plainly: Potentiation of poly I:C-induced antiproliferative activity against human M14 cells assessed as reduction in cell numbers by measuring IC50 pretreated with compound for 2 hrs followed by poly I:C addition and measured after 48 hrs by MTT assay. The data set is classed as functional, cell-based.
Another data set relates to LNCaP. As to the kind of experiment: Antiproliferative activity against human LNCaP cells assessed as inhibition of cell proliferation incubated for 72 hrs by MTT assay. The class given is functional, cell-based.
For data set [3], the system named is SK-MEL-28. Put plainly: Antiproliferative activity against human SK-MEL-28 cells assessed as inhibition of cell proliferation incubated for 72 hrs by MTT assay. The data set is classed as functional, cell-based. Conditions: SK-MEL-28, 72 h.
For data set [4], the system named is SK-MEL-28. As to the kind of experiment: Potentiation of poly I:C-induced antiproliferative activity against human SK-MEL-28 cells assessed as reduction in cell numbers by measuring IC50 pretreated with compound for 2 hrs followed by poly I:C addition and measured after 48 hrs by MTT assay. The class given is functional, cell-based.
The test system of data set [5] is M14. As to the kind of experiment: Antiproliferative activity against human M14 cells assessed as inhibition of cell proliferation incubated for 48 hrs by MTT assay. The class given is functional, cell-based. The settings on record: M14, 48 h.
A further data set deals with HFF. Put plainly: Cytotoxicity against human HFF cells assessed as reduction in cell viability incubated for 72 hrs by MTT assay. The data set is classed as cell-based.
The test system of data set [6] is ACHN. As to the kind of experiment: Antiproliferative activity against human ACHN cells assessed as inhibition of cell proliferation incubated for 72 hrs by MTT assay. The class given is functional, cell-based.
Data set [7] concerns M14. Put plainly: Antiproliferative activity against human M14 cells assessed as inhibition of cell proliferation incubated for 72 hrs by MTT assay. The settings on record: M14, 72 h. The data set is classed as functional, cell-based.
A further data set has as its system CWR22R. Put plainly: Antiproliferative activity against human 22Rv1 cells assessed as inhibition of cell proliferation incubated for 72 hrs by MTT assay. The class given is functional, cell-based. Conditions: 22Rv1, 72 h.
Data set [8] deals with ACHN. As to the kind of experiment: Potentiation of TRAIL-induced antiproliferative activity against human ACHN cells assessed as reduction in cell numbers by measuring IC50 pretreated with compound for 2 hrs followed by TRAIL addition and measured after 24 hrs by MTT assay. The class given is functional, cell-based.
Data set [9] has as its system ACHN. As to the kind of experiment: Antiproliferative activity against human ACHN cells assessed as inhibition of cell proliferation incubated for 24 hrs by MTT assay. The class given is functional, cell-based.
The nature of data set [10]: Selectivity ratio of IC50 for HFF cells to IC50 for human 22Rv1 cells.
Data set [11] is described as follows: Selectivity ratio of IC50 for HFF cells to IC50 for human LNCaP cells. The data set is classed as toxicity. The settings on record: HFF cells versus LNCaP cells, read-out: Ratio IC50.

Experimental findings from ChEMBL document CHEMBL4840375, “Ring A/B-Modified 17β-Hydroxywithanolide Analogues as Antiproliferative Agents for Prostate Cancer and Potentiators of Immunotherapy for Renal Carcinoma and Melanoma” (J Nat Prod, 2021) are described below.

As a reminder, the IC50 is the midpoint of a concentration-inhibition curve. With `CC(=O)OC[C@]12CC[C@H]3[C@@H](CC(=O)C4=CC=CC(=O)[C@@]43C)[C@]1(O)CC[C@@]2(O)[C@@](C)(O)C1CC(C)=C(C)C(=O)O1` (stereo partly drawn), the IC50 in the data set on SK-MEL-28 [1], in the data set on M14 [2], in the data set on LNCaP, in the data set on SK-MEL-28 [3], with SK-MEL-28 [4] and in the data set with M14 [5] was above 5000 nM in each case. In addition, the IC50 was above 5000 nM with HFF, above 5000 nM in the data set on ACHN [6], 2340 nM with M14 [7] and 500 nM in the data set with CWR22R.

As for `CC(=O)OC[C@]12CC[C@H]3[C@@H](C[C@H]4O[C@]45[C@H](O)C=CC(=O)[C@]35C)[C@]1(O)CC[C@@]2(O)[C@@](C)(O)C1CC(C)=C(C)C(=O)O1` (stereo partly drawn), the IC50 in the data set on ACHN [8] is 270 nM; in the data set with SK-MEL-28 [1], above 5000 nM; with ACHN [9], above 5000 nM; in the data set on M14 [2] it was above 5000 nM; in the data set with LNCaP, 1740 nM; in the data set on SK-MEL-28 [3], 3030 nM. The IC50 in the data set with SK-MEL-28 [4] was 4720 nM; in the data set with M14 [5], above 5000 nM; with HFF, above 5000 nM; with ACHN [6], 3930 nM; in the data set with M14 [7], above 5000 nM; with CWR22R, 330 nM.

In the case of `CC(=O)OC[C@]12CC[C@H]3[C@@H](C[C@H]4O[C@]45[C@@H](O)C=CC(=O)[C@]35C)[C@]1(O)CC[C@@]2(O)[C@@](C)(O)C1CC(C)=C(C)C(=O)O1` (stereo partly drawn), the IC50 in the data set with SK-MEL-28 [1] was above 5000 nM; in the data set on M14 [2], above 5000 nM; in the data set with LNCaP, 3520 nM; in the data set on SK-MEL-28 [3], above 5000 nM; in the data set on SK-MEL-28 [4] it was 4610 nM; with M14 [5], above 5000 nM. The IC50 in the data set on HFF was above 5000 nM; in the data set with ACHN [6], above 5000 nM; in the data set with M14 [7] it was above 5000 nM; in the data set with CWR22R, 1530 nM.

As for `CC(=O)OC[C@]12CC[C@H]3[C@@H](CC=C4CC=CC(=O)[C@@]43C)[C@]1(O)CC[C@@]2(O)[C@@](C)(O)C1CC(C)=C(C)C(=O)O1` (stereo partly drawn), the IC50 is 560 nM in the data set with ACHN [8]; above 5000 nM in the data set on SK-MEL-28 [1]; above 5000 nM in the data set with ACHN [9]; 2810 nM in the data set on M14 [2]; above 5000 nM in the data set with SK-MEL-28 [3]; 1770 nM in the data set on SK-MEL-28 [4]. Also, the IC50 with M14 [5] was above 5000 nM; in the data set with HFF, above 5000 nM; in the data set with ACHN [6], 3090 nM; with M14 [7] it was above 5000 nM; with CWR22R, 130 nM.

For the compound `CC(=O)OC[C@]12CC[C@H]3[C@@H](C[C@H]4O[C@]45[C@@H](OC(C)=O)C=CC(=O)[C@]35C)[C@]1(O)CC[C@@]2(O)[C@@](C)(O)C1CC(C)=C(C)C(=O)O1` (stereo partly drawn), the IC50 in the data set with ACHN [8] is 250 nM; in the data set with SK-MEL-28 [1] it was 2730 nM; in the data set on ACHN [9] it was above 5000 nM; in the data set on M14 [2] it was 1670 nM; in the data set on LNCaP it was 920 nM; with SK-MEL-28 [3], 1550 nM. For the same compound, the IC50 with SK-MEL-28 [4] was 1380 nM; in the data set with M14 [5], above 5000 nM; in the data set with HFF, 1520 nM; in the data set with ACHN [6] it was 1270 nM; in the data set with M14 [7], above 5000 nM; in the data set on CWR22R, 250 nM.

On to `CC(=O)OC[C@]12CC[C@H]3[C@@H](C[C@H]4O[C@]45[C@H](OC(C)=O)C=CC(=O)[C@]35C)[C@]1(O)CC[C@@]2(O)[C@@](C)(O)C1CC(C)=C(C)C(=O)O1` (stereo partly drawn), for which the IC50 in the data set with ACHN [8] was 250 nM; with SK-MEL-28 [1], above 5000 nM; with ACHN [9] it was above 5000 nM; in the data set with M14 [2], above 5000 nM; in the data set on LNCaP, 1500 nM; in the data set with SK-MEL-28 [3] it was 2560 nM. Also, the IC50 in the data set on SK-MEL-28 [4] was 2620 nM; in the data set on M14 [5] it was above 5000 nM; in the data set with HFF, above 5000 nM; in the data set on ACHN [6], 3310 nM; with M14 [7] it was above 5000 nM; in the data set with CWR22R, 210 nM.

Consider `CC(=O)OC[C@]12CC[C@H]3[C@@H](C[C@H]4O[C@]45CC=CC(=O)[C@]35C)[C@]1(O)CC[C@@]2(O)[C@@](C)(O)C1CC(C)=C(C)C(=O)O1` (stereo partly drawn), for which the IC50 in the data set with ACHN [8] is 160 nM; in the data set with SK-MEL-28 [1] it was above 5000 nM; in the data set with ACHN [9], above 5000 nM; in the data set on M14 [2] it was 110 nM; with SK-MEL-28 [3], above 5000 nM; in the data set on SK-MEL-28 [4], 110 nM. The values for the IC50 in the data set on M14 [5], with HFF and in the data set with M14 [7] were above 5000 nM, 2290 nM and 1570 nM, respectively. In data set [10], the “Ratio IC50” value was determined as 75. In addition, the selectivity ratio in [11] is 115.
